Experiments:
[1] = test system: pLck-pY505 (dephosphorylated by PTPase CD45) in Jurkat cells; test: pLck-pY505 in Jurkat cells (Western blotting); format: cell-based, human; settings: L5-treated Jurkat cells
Procedure: Jurkat cells in culture medium (3×10^6 cells/ml, 1 ml/tube) were treated with agents for designated times at room temperature. After brief centrifuging in a microfuge (4,000 rpm, 2 min), the cell pellet was lysed on ice for 30 min in 100 μl of cold lysis buffer (1% NP40, 50 mM Tris, pH 7.4, 150 mM NaCl, 20 mM NaF, 0.2 mM Na3VO4 and 1 mM Na3MO4) containing a cocktail of proteinase inhibitors (Sigma, 1 tablet/10 ml). The lysates were cleared by centrifuging (14,000 rpm, 10 min) in a microfuge at 4° C. to remove insoluble parts, mixed with equal volume of 2×SDS-PAGE sample buffer, boiled for 5 min and analyzed (˜3×10^5 cells/well) by SDS-PAGE/Western blotting. Relative intensities of phosphotyrosine bands were quantified through densitometry analysis.

[2] = test system: B16 melanoma tumors; test: B16 melanoma tumor growth in athymic nude mice; format: in vivo, mouse; settings: 3 mg/kg/day, oral, M-F/week
Procedure: To assess L5 anti-tumor activity, C57BL/6J mice or athymic nude mice (˜8-week old, female, Taconic Farms, Germantown, N.Y.) were inoculated (s.c.) at the flanks with B16 melanoma cells (4×10^4 cells/site). Four days post-inoculation, the mice were treated with PBS (Control) or L5 (˜3 mg/kg body weight/daily, Monday—Friday/week, oral gavage). Tumor volume (n=5) was measured during the study period and calculated using the formula for a prolate spheroid. Student's t test was used for assessing the significance of tumor volume differences among differential treatment groups. Mouse viability (daily) and body weights (weekly) were also recorded during the study period. Major internal organs of the mice were inspected visually upon their termination at the end of the experiment.

[3] = test system: Jurkat cells; test: Jurkat cell growth in culture (MTT assay); format: cell-based, human
Procedure: FIG. 3 illustrates differential toxicity of L5 and L6. Jurkat cells were cultured in the absence or presence of lead compound #5 (L5) (A) or #6 (L6) (B) for 6 days prior to quantification of cell growth by MTT assays. Data represent mean ±SD of triplicate samples. Balb/c mice were treated with L5 (˜10 mg/kg body weight, s.c., daily, M-F/wk) for two weeks to assess its toxicity in vivo (C).
L5, L6 and L6 analogs (Chembridge), mouse IFNγ ELISPOT Kit (R & D System) and antibody against pLck-pY394 or pERK1/2 (Cell Signaling) were purchased from commercial sources. Human Jurkat T cell line and murine B16 melanoma cell line (ATCC) and other cancer cell lines were maintained in […] culture medium supplemented with 10% fetal calf serum (FCS). The effects of chemical compounds on cancer cell growth in culture were quantified by MTT assays following our established procedures.

[4] = biological target: T1, recombinant SHP-1 (Homo sapiens, UniProt P29350); test: rapid in vitro SHP-1 PTPase assay (DIFMUP substrate); format: biochemical; settings: 1 μg/well; FIG. 12A
T1 construct: Recombinant protein of SHP-1 PTPase catalytic domain was described
T1 sequence (P29350 244-515 limits assumed): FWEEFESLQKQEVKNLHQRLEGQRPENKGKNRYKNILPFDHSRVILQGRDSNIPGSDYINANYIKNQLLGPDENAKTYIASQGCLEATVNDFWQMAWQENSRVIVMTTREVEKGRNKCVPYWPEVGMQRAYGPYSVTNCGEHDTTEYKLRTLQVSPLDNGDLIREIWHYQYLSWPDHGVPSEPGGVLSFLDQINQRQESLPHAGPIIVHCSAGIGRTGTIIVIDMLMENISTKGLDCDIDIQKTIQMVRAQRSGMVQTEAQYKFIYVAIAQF
Procedure: Recombinant protein of SHP-1 PTPase catalytic domain was described and stored in Tris buffer (25 mM Tris, pH7.5, 1 mM EDTA, 2 μM 2-ME, 25% glycerol) at −80° C. Fluorescence substrate DIFMUP (6,8-difluoro-4 methylumbelliferyl phosphate) was purchased (Molecular Probes). SSG was reported previously (21-23) and stored at 4° C. in darkness prior to use. Human and mouse IFNγ ELISPOT Kit (R & D System), CD4^+ Cell Intracellular IFNγ Detection Kit (BD Bioscience) and CD8^+ Cell Intracellular IFNγ Detection Kit (BD Bioscience) were purchased from commercial sources. Human Jurkat T cell line (26) and murine B16 melanoma cell line (ATCC) were maintained in […] culture medium supplemented with 10% fetal calf serum (FCS). Antibodies against pLck-pY394 (Cell Signaling), pLck-pY505 (Cell Signaling), pZap70 (pY319, BD Biosciences), pSlp76 (pY128, BD Biosciences) and pLat (pY226, BD Biosciences) were purchased from commercial sources.
(§1) A rapid SHP-1 PTPase assay was developed for screening the compounds in a commercial library of 34,000 drug-like small chemicals (Chembridge, Mass.). Briefly, compounds of the library (1 μg/well in 0.21 DMSO) were placed in 96-well plates (Falcon, 353072) and mixed with recombinant SHP-1 protein (0.1 μg/well) in 90 μl of HEPES buffer (50 mM HEPS, pH 7.5, 150 mM NaCl, 1 mM EDTA, 0.2 mM DTT and 0.1 mg/ml BSA). The plates were incubated at room temperature for 10 minutes prior to the addition of fluorescence substrate DIFMUP (40 μM stock in HEPES buffer, 10 μl/well) to initiate PTPase reaction. Upon completion of PTPase reaction at room temperature for 1 hr in darkness, fluorescence signal of individual wells were recorded using a Vector^2 Multilabel Counter (Vector, CA). They were compared to that of control SHP-1 PTPase reaction (˜10,000 units of fluorescence signal) in the absence of any compound (100%) for calculating relative SHP-1 inhibition induced by the compounds after subtracting the background signal (˜500 units of fluorescence signal) of the substrate.
as §1, with “To evaluate their” for “A rapid”, “inhibitory activity,” for “PTPase assay was developed for screening”, “analogs” for “compounds in a commercial library of 34,000 drug-like small chemicals (Chembridge, Mass.). Briefly, compounds of the library”, “0.2 μl” for “0.21”, “aliquot individually to” for “placed in”, “(500” for “(˜500”

## O=C1C=CC(=O)C(c2cc(Cl)ccc2Cl)=C1 [L5]
[1]
  pLck-pY505: little effects
[2]
  B16 melanoma tumors in athymic nude mice: not inhibited
[3]
  toxicity against Jurkat cells in culture (summary): marked toxicity
[3]; ~30 ng-1 μg/ml, 6 days
  growth of Jurkat cells in culture: not markedly affected
[4]
  inhibition of phosphatase activity of recombinant SHP-1: completely or almost completely inhibited

Reference: patent US20080051464A1, “Protein phosphatase inhibitors” (The Cleveland Clinic Foundation, priority 2006, published 2008)
